Test: Antagonism Tetrabenazine (antidepressive action)
Assay type: in vivo
Conditions: species, route and unit inferred, read-out: ED50 Antagonism Dosage Tetrabenazine

Row | SMILES | ED50
1 | Cc1ccc2c(c1)c1c3n2CCNC3CCC1.Cl (stereo not drawn) [8-methyl-2,3,3a,4,5,6-hexahydro-1H-pyrazino[3,2,1-jk]carbazole-hydrochloride, reference compound] | 14 mg/kg
2 | Cc1ccc2c(c1)c1c3n2CCN=C3CCC1.Cl [Example 1, 8-methyl-2,4,5,6-tetrahydro-1H-pyrazino[3,2,1-jk]carbazole-hydrochloride] | 4 mg/kg
3 | COc1ccc2c(c1)c1c3n2CCN=C3CCC1.Cl [Example 2, 8-methoxy-2,4,5,6-tetrahydro-1H-pyrazino[3,2,1-jk]carbazole-hydrochloride] | 2 mg/kg
